Patent publication US20080293721A1, “ARYLTHIOACETAMIDE CARBOXYLATE DERIVATIVES AS FKBP INHIBITORS FOR THE TREATMENT OF NEUROLOGICAL DISEASES” (Burnham Institute for Medical Research, priority 2007, published 2008)

Assays:
[1] = test system: primary rat cortical neurons; experiment: neurite outgrow with primary rat cortical neurons (FIGS. 4, 5; Sholl analysis); assay type: cell-based; settings: FIG. 4
Description: FIGS. 4 and 5 show the effect of FKBP12 ligands on neurite outgrow with primary rat cortical neurons.

FKBP12 = FKBP12 (Homo sapiens, UniProt P62942); experiment: secondary assays with isothermal titration calorimetry and 2D NMR (FIGS. 2, 3); assay type: binding
Description: The ligand concentration chart refers to the compound having the formula VIII (i.e., p-toluoylthioacetylmorpholine) used as the ligand.

FKBP12, sequence (P62942 whole entry, species assumed): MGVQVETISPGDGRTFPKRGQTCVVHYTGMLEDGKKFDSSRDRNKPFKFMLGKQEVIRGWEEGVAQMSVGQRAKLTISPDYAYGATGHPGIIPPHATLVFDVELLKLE

Row | Structure (SMILES) | effect on neurite outgrow [1] | Kd (FKBP12) [µM]
1 | CC(C)c1ccc(SCC(=O)N2CCOCC2C(=O)OCCCc2cccnc2)cc1 (centres unmarked) [Compound VII, 3-(pyridine-3-yl)propyl 4-(2-(4-isopropylphenylthio)acetyl)morpholine-3-carboxylate] | particularly substantial | –
2 | Cc1ccc(SCC(=O)N2CCOCC2)cc1 [VIII] | – | 4
